Measurements reported in paper PMC9021288 (Nature Communications, 2022).
Several values for one entry are separate records, joined by “and”; a condition that tells them apart may be missing. Equal entries are not always repeated. Where two headings read alike, the source gives them in different places.

Tests used:
[1] = tested on: P. falciparum T648M / T627A AcAS mutant gametocytes; assay type: cell-based, Plasmodium falciparum
Method: (§1) Gametocyte viability assays on NF54-HGL parasites were performed using an adapted high-throughput protocol as previously described[15],[64]. In short, asexual blood-stage parasite cultures were set up at 1% parasitemia in a semi-automated shaker system at 5% hematocrit. From day four until day eight or nine, parasites were treated with 50 mM N-acetyl glucosamine to eliminate all asexual blood-stage parasites. Subsequently, gametocytes were isolated by a Percoll density gradient centrifugation. At day 11, gametocytes were seeded (5,000 per well) in 30 µl in white 384-well plates containing 30 µl of compounds diluted in medium (0.1% DMSO). After a 72-h incubation, 30 µl of ONE-Glo reagent (Promega) was added according to manufacturer’s protocol and luminescence was quantified using the BioTek Synergy 2 Plate reader. Values were normalized to DMSO- and epoxomicin or dihydroartemisinin-treated controls.

[2] = tested on: P. falciparum NF54-HGL, dT648M, cT648M, cT627A asexual blood stages; assay: Asexual drug-sensitivity of AcAS mutant parasites; assay type: cell-based, Plasmodium falciparum; set-up: key to asexual blood stages growth, dose-response: % growth; DMSO control = 100%, DHA/epoxomicin = no growth
Method: Replication assays were performed using a SYBR Green method as described previously. Briefly, asynchronous parasites were diluted to 0.83% parasitemia, 3% hematocrit in 30 µl medium, and added to 30 µl of diluted compounds in medium (0.1% DMSO final concentration) in black 384-wells plates. After a 72-h incubation, 30 µl of SYBR Green diluted in lysis buffer was added according to the manufacturer’s protocol (Life Technologies). Fluorescence intensity was measured on a BioTek Synergy 2 Plate Reader after 1-h incubation and was normalized to a DMSO control (100% growth) and DHA- or epoxomicin-treatment (no growth). […] Parasite survival was assessed by flow cytometry on an Accuri C6 (BD Biosciences) with BD C6 Plus software using SYBR Green and MitoTracker Deep Red FM (Life Technologies) as nuclear stain and vital dye, respectively, and data were analyzed using FlowJo (10.5.0). […] Luminescence was measured after 72 h using the Renilla-Glo(R) Luciferase Assay System (Promega E2750) and the GlomAX® Discover Multimode Microplate Reader (Promega). The luminescence values were normalized to DMSO vehicle (100% growth) and 200 nM chloroquine-treated (no growth) samples as controls.
The mutation found in selected drug-resistant parasites was verified by introducing the point mutations in AcAS (T648M and T627A) in NF54-HGL parasites using a CRISPR-Cas9 system as described previously. The oligonucleotides for the guide RNA and the donor template were cloned into a pDC2-based plasmid containing a Cas9 and guide cassette, using the BbsI and EcoRI/AatII restriction sites, respectively. Donor DNA was amplified by (overlap-extension) PCR amplification from genomic P. falciparum DNA and oligonucleotides for the guide RNAs were ordered (Sigma-Aldrich). The correct sequence and integration of both inserts were confirmed by Sanger Sequencing.

[3] = tested on: cryopreserved human primary hepatocytes; assay: in vitro; settings: human, hepatocytes
Text: Briefly, cryopreserved human primary hepatocytes were thawed and cultured as described above.

[4] = tested on: P. falciparum NF54 asexual blood-stage parasites; assay: 72-h asexual blood-stage replication assay (SYBR Green); assay type: cell-based, Plasmodium falciparum; settings: asexual blood stages NF54 parasites; read-out: IC50
[5] = tested on: P. falciparum NF54-HGL gametocytes; assay: Gametocyte viability assay (72 h, luminescence); assay type: cell-based, Plasmodium falciparum; settings: NF54-HGL
Method: as §1

[6] = cT627A, Log concentration (M) -7.5
[7] = cT627A, Log concentration (M) -8
[8] = cT627A, Log concentration (M) -8.5
[9] = cT627A, Log concentration (M) -9
[10] = cT627A, Log concentration (M) -9.5
[11] = cT627A, Log concentration (M) -10
[12] = cT648M, Log concentration (M) -6
[13] = cT648M, Log concentration (M) -6.5
[14] = cT648M, Log concentration (M) -7
[15] = cT648M, Log concentration (M) -7.5
[16] = cT648M, Log concentration (M) -8
[17] = cT648M, Log concentration (M) -8.5
[18] = cT648M, Log concentration (M) -9
[19] = cT648M, Log concentration (M) -9.5
[20] = cT648M, Log concentration (M) -10
[21] = dT648M, Log concentration (M) -6
[22] = dT648M, Log concentration (M) -6.5
[23] = dT648M, Log concentration (M) -7
[24] = dT648M, Log concentration (M) -7.5
[25] = dT648M, Log concentration (M) -8
[26] = dT648M, Log concentration (M) -8.5
[27] = dT648M, Log concentration (M) -9
[28] = dT648M, Log concentration (M) -9.5
[29] = dT648M, Log concentration (M) -10

CC(CNC(=O)C(O)C(C)(C)CO)NC(=O)CCc1ccccc1F (stereo in doubt) [MMV689258]
gametocyte viability, dose-response ([1]; cT627A, Log concentration (M) -6): 54.65 and 65.95 and 38.25
gametocyte viability, dose-response ([1]; cT627A, Log concentration (M) -6.5): 66.35 and 84.15 and 69.3
gametocyte viability, dose-response ([1]; cT627A, Log concentration (M) -7): 85 and 95.75 and 66.7
gametocyte viability, dose-response [1, 6]: 95.85 and 91.8 and 94.3
gametocyte viability, dose-response [1, 7]: 92.9 and 96.45 and 100.2
gametocyte viability, dose-response [1, 8]: 84.65 and 95.2 and 101.25
gametocyte viability, dose-response [1, 9]: 97.55 and 97.85 and 111.3
gametocyte viability, dose-response [1, 10]: 87.2 and 101.95 and 102.75
gametocyte viability, dose-response [1, 11]: 85.8 and 97.9 and 99.85
gametocyte viability, dose-response [1, 12]: 103.9 and 89.5 and 90.75
gametocyte viability, dose-response [1, 13]: 103.05 and 97.85 and 100.35
gametocyte viability, dose-response [1, 14]: 99.3 and 92.85 and 107.7
gametocyte viability, dose-response [1, 15]: 98.25 and 95.25 and 103.7
gametocyte viability, dose-response [1, 16]: 84.9 and 96.6 and 106.6
gametocyte viability, dose-response [1, 17]: 104.05 and 98.15 and 101
gametocyte viability, dose-response [1, 18]: 97.2 and 88.65 and 97.7
gametocyte viability, dose-response [1, 19]: 106.45 and 88.2 and 104.1
gametocyte viability, dose-response [1, 20]: 102.75 and 101.9 and 108.55
gametocyte viability, dose-response [1, 21]: 104.25
gametocyte viability, dose-response [1, 22]: 95.5
gametocyte viability, dose-response [1, 23]: 100.05
gametocyte viability, dose-response [1, 24]: 101.95
gametocyte viability, dose-response [1, 25]: 95.3
gametocyte viability, dose-response [1, 26]: 102.85
gametocyte viability, dose-response [1, 27]: 93.8
gametocyte viability, dose-response [1, 28]: 107.4
gametocyte viability, dose-response [1, 29]: 95.7
asexual blood stages growth, dose-response ([2]; NF54-HGL, Log concentration (M) -9): 76.1 and 93.6 and 100.55
asexual blood stages growth, dose-response ([2]; NF54-HGL, Log concentration (M) -9.5): 86.25 and 83.5 and 106.05
asexual blood stages growth, dose-response ([2]; NF54-HGL, Log concentration (M) -10): 96.25 and 97.9 and 112.35
asexual blood stages growth, dose-response [2, 6]: 91.7 and 68.35 and 87.5
asexual blood stages growth, dose-response [2, 7]: 98.75 and 75.4 and 102
asexual blood stages growth, dose-response [2, 8]: 98.95 and 109.7 and 103.8
asexual blood stages growth, dose-response [2, 9]: 93.85 and 110.4 and 101.9
asexual blood stages growth, dose-response [2, 10]: 95.15 and 100.65 and 102.3
asexual blood stages growth, dose-response [2, 11]: 92.1 and 102.75
asexual blood stages growth, dose-response [2, 12]: 85.3 and 76.95 and 95.6
asexual blood stages growth, dose-response [2, 13]: 97.25 and 93 and 109.55
asexual blood stages growth, dose-response [2, 14]: 112 and 98.45 and 99.1
asexual blood stages growth, dose-response [2, 15]: 108.7 and 101 and 101.4
asexual blood stages growth, dose-response [2, 16]: 108.05 and 99.35 and 97.85
asexual blood stages growth, dose-response [2, 17]: 99.1 and 110.25 and 104.05
asexual blood stages growth, dose-response [2, 18]: 88.2 and 96.6 and 106.85
asexual blood stages growth, dose-response [2, 19]: 95.65 and 97.35 and 100.3
asexual blood stages growth, dose-response [2, 20]: 86.35 and 97.9 and 99.6
asexual blood stages growth, dose-response [2, 21]: 86.55
asexual blood stages growth, dose-response [2, 22]: 89.25
asexual blood stages growth, dose-response [2, 23]: 95.15
asexual blood stages growth, dose-response [2, 24]: 99.65
asexual blood stages growth, dose-response [2, 25]: 89.85
asexual blood stages growth, dose-response [2, 26]: 92.65
asexual blood stages growth, dose-response [2, 27]: 97.45
asexual blood stages growth, dose-response [2, 28]: 97
asexual blood stages growth, dose-response [2, 29]: 99.15
Human hepatocyte CLint [3]: 0.8 µl/min/10^6 cells
IC50 [4]: 7 nM
gametocyte viability, dose-response ([5]; Log concentration (M) -8): 82.05 and 46 and 45.3
gametocyte viability, dose-response ([5]; Log concentration (M) -8.5): 95.95 and 82.9 and 64.1
gametocyte viability, dose-response ([5]; Log concentration (M) -9): 97.75 and 94.05 and 92.15
gametocyte viability, dose-response ([5]; Log concentration (M) -9.5): 104.7 and 93.15 and 94.35
gametocyte viability, dose-response ([5]; Log concentration (M) -10): 106.25 and 112.55 and 90.95
